From patent US20220280594A1, “APPLICATION OF POLYPEPTIDE OR DERIVATIVE THEREOF” (CHENGDU HUITAI BIOMEDICINE CO., LTD., priority 2019, published 2022)
Ends that are not written are not given here. PEG = not defined here

Columns and labels:
fibronectin = fibronectin expression in SK-HEP-1 cells (ELISA); format: cell-based, human; conditions: SK-HEP-1, 10 μM, 24 hours, control group 1.62 ± 0.09
Protocol: (§1) SK-HEP-1 cells were cultured in vitro, cells in the logarithmic growth phase were collected, and the cells were seeded evenly in a 24-well plate at a density of 1-3×10^5 cells/well. The cells were cultured in a cell incubator for 4-5 h. PBS was added to the control group. PBS containing polypeptide or derivative thereof (N1-N12) was added to the treatment group. The final concentration of the polypeptide or derivative thereof in the well was 10 μM. After incubating for 24 hours, the cells were collected and the total protein was extracted. ELISA was used to detect the content of fibronectin in total protein.

[1] = effect on coagulation function in mice (ACT); format: in vivo, C57BL/6J mice; conditions: 200 mg/kg tail vein once a day until Day 24, blood on Day 25; control group 73.50 ± 7.15
Protocol: C57BL/6J mice were used as experimental subjects (purchased from Chengdu Dashuo Experimental Animal Co., Ltd., male, weighing 16-17 g). Sterile saline or peptide drugs were injected via the tail vein once a day until Day 24. The mice in the control group were injected with sterile saline, and the mice in the administration groups (N1-N12) were injected with polypeptide drugs (200 mg/kg). There were three experimental animals in each group. On Day 25, the eyeballs were removed and blood ([…]) was taken. The coagulation function of the mice was detected by the Abbott i-STAT blood gas analyzer with the ACT test card.

vimentin = vimentin expression in SK-HEP-1 cells (ELISA); format: cell-based, human; conditions: SK-HEP-1, 10 μM, 24 hours, control group 1.2 ± 0.01
Protocol: as §1
The experimental method for testing the inhibition on the expression of vimentin in human liver adenocarcinoma cells (SK-HEP-1) by the polypeptide or derivative thereof (N1-N12) was as described in Example 19.

N-cadherin = N-cadherin expression in SK-HEP-1 cells (ELISA); format: cell-based, human; conditions: SK-HEP-1, 10 μM, 24 hours, control group 1.12 ± 0.03
Protocol: as §1
The experimental method for testing the inhibition on the expression of N-cadherin in human liver adenocarcinoma cells (SK-HEP-1) by the polypeptide or derivative thereof (N1-N12) was as described in Example 19.

[2] = tested on: human pancreatic cancer cells (PANC-1) subcutaneous xenograft; experiment: pancreatic cancer subcutaneous xenograft animal model, intratumoral injection; format: in vivo, mice (BALB/c-nu/nu); conditions: PANC-1 xenograft, intratumoral 5 mg/kg once every other day, 25 days; for Weight of tumor (g) (mean ± SD): control 1.2 ± 0.11; for Volume of tumor (mm^3) (mean ± SD): control 1431.72 ± 174.33
Protocol: (§2) Experimental animals: 4-6 weeks old female immunodeficiency mice (BALB/c-nu/nu, Beijing Vital River Laboratory Animal Technology Co., Ltd.).
(§3) Subcutaneous xenograft animal model. The number of cells inoculated subcutaneously vin mice was about 2×10^6/200 μL. When the volume of the subcutaneous tumor was greater than 100 mm^3, the mice were randomly divided into groups and subjected to treatment. When the mass volume of the tumors in model control group reached 2000 mm^3 or the animal dies, the treatment ended. The animals were dissected, the tumors were taken out, and the weight and volume of the tumors were measured. During the period of the entire experiment, the mice were observed and the body weight was measured every other day.
The method used in the efficacy test on the pancreatic cancer subcutaneous xenograft animal model was as described in Example 5. The pancreatic cancer cells were human pancreatic cancer cells (PANC-1), and the route of administration was intratumoral injection. The experimental groups were model control group and polypeptide or derivative thereof treatment groups (N1-N12). The drug dosage of the N1-N12 treatment group was 5mg/kg, once every other day, and the treatment time was 25 days.

[3] = tested on: human lung cancer cells (A549) subcutaneous xenograft; experiment: lung cancer subcutaneous xenograft animal model, intratumoral injection; format: in vivo, mice (BALB/c-nu/nu); conditions: intratumoral 5 mg/kg once every other day, 10 days; for Weight of tumor (g) (mean ± SD): control 1.45 ± 0.15; for Volume of tumor (mm^3) (mean ± SD): control 1269.32 ± 115.39
Protocol: as §2, §3
The method used for the drug efficacy test in the animal model of the subcutaneous xenograft derived from lung cancer cells was as described in Example 5. The tumor cells were human lung cancer cells (A549), and the route of administration was intratumoral injection. There were two groups: the model control group and the polypeptide or its derivative treatment group (N1-N12). The drug dosage of the treatment group was 5 mg/kg, once every other day and the treatment time was 10 days.
The procedure of the efficacy test in this example, route and dosage of administration were the same as in Example 9. The peptides used in the experiment were N13-N32. The treatment time was 20 days.

[4] = tested on: human pharyngeal squamous-cell carcinoma cells (Fadu); experiment: scratch assay, migration of Fadu cells; format: cell-based; conditions: 10 μM, 48 hours, control group 28.76 ± 4.08
Protocol: (§4) In the scratch assay, the cell migration rate was negatively correlated with the inhibitory effect of the drug component on tumor cell migration ability. The cell migration inhibition experiment was described as follows: tumor cells were cultured in vitro, cells in logarithmic growth phase were collected and seeded evenly in a 24-well plate at a density of 1-2×10^5 cells/well; the cells were cultured in a cell incubator until a monolayer was formed; a scratch tool was used to make a “-” (straight) scratch on the monolayer of cells; the cells were washed 1-3 times with PBS, and a medium (with 2% fetal bovine serum) containing specific test components was added to the culture. Experimental grouping: PBS control group; polypeptide or derivative thereof treatment group (N1-N54), 10 μM. Three independent parallel wells were set up in each group, and the cells were cultured continuously in a cell incubator for 48 hours. […] At least 3 representative images for each well were taken. ImageJ software was used to count the migration distance of the cells, and the cell migration rate was calculated as: cell migration rate (%)=(width of original scratch−width of current scratch)/width of original scratch×100.
This example was a scratch assay to evaluate the inhibitory effect of the polypeptide or derivative thereof (N1-N54) on the migration ability of human pharyngeal squamous-cell carcinoma cells (Fadu). The experimental method was as described in Example 2.

[5] = tested on: human melanoma cells (A375); experiment: scratch assay, migration of A375 cells; format: cell-based; conditions: A375, 10 μM, 48 hours; control group 44.03 ± 6.21
Protocol: as §4
This example was a scratch assay to evaluate the inhibitory effect of the polypeptide or derivative thereof (N1-N54) on the migration ability of human melanoma cells (A375). The experimental method was as described in Example 2.

## N1: polypeptide with the amino acid sequence set forth in SEQ ID NO: 1 (YRVRFLAKENVTQDAEDN)
fibronectin
  Relative protein level (mean ± SD, P), fibronectin: 1.3 ± 0.02,**
[1]
  Activated clotting time (s) (mean ± SD): 73.64 ± 9.31 s
vimentin
  Relative protein level (mean ± SD, P), vimentin: 0.97 ± 0.03, ***
N-cadherin
  Relative protein level (mean ± SD, P), N-cadherin: 0.83 ± 0.04,***
[2]
  Weight of tumor (g) (mean ± SD): 0.52 ± 0.13 g
  Volume of tumor (mm^3) (mean ± SD): 704.1 ± 152.43 mm^3
[3]
  Weight of tumor (g) (mean ± SD): 0.87 ± 0.08 g
  Volume of tumor (mm^3) (mean ± SD): 851.64 ± 67.38 mm^3
[4]
  Migration rate (%) (mean ± SD, P): 5.68 ± 2.86,*** %
[5]
  Migration rate (%) (mean ± SD, P): 8.49 ± 2.99,*** %

## N6: SEQ ID NO: 1 with deletion of four amino acids at the carboxyl terminal (positions 15-18) (YRVRFLAKENVTQD)
fibronectin
  Relative protein level (mean ± SD, P), fibronectin: 1.33 ± 0.04,**
[1]
  Activated clotting time (s) (mean ± SD): 74.09 ± 8.51 s
vimentin
  Relative protein level (mean ± SD, P), vimentin: 0.81 ± 0.03, ****
N-cadherin
  Relative protein level (mean ± SD, P), N-cadherin: 0.83 ± 0.04,***
[2]
  Weight of tumor (g) (mean ± SD): 0.61 ± 0.07 g
  Volume of tumor (mm^3) (mean ± SD): 538.26 ± 121.04 mm^3
[3]
  Weight of tumor (g) (mean ± SD): 0.79 ± 0.18 g
  Volume of tumor (mm^3) (mean ± SD): 769.35 ± 155.34 mm^3
[4]
  Migration rate (%) (mean ± SD, P): 11.34 ± 2.04,** %
[5]
  Migration rate (%) (mean ± SD, P): 11.22 ± 1.65,*** %

## N3: SEQ ID NO: 1 with deletion of position 18 and PEG modification at the amino terminal ({PEG}-YRVRFLAKENVTQDAED; reading uncertain)
fibronectin
  Relative protein level (mean ± SD, P), fibronectin: 1.26 ± 0.09,**
[1]
  Activated clotting time (s) (mean ± SD): 72.55 ± 8.27 s
vimentin
  Relative protein level (mean ± SD, P), vimentin: 0.96 ± 0.05, **
N-cadherin
  Relative protein level (mean ± SD, P), N-cadherin: 0.87 ± 0.09,*
[2]
  Weight of tumor (g) (mean ± SD): 0.6 ± 0.1 g
  Volume of tumor (mm^3) (mean ± SD): 695.11 ± 111.9 mm^3
[3]
  Weight of tumor (g) (mean ± SD): 0.79 ± 0.18 g
  Volume of tumor (mm^3) (mean ± SD): 712.59 ± 200.32 mm^3
[4]
  Migration rate (%) (mean ± SD, P): 12.97 ± 3.58,** %
[5]
  Migration rate (%) (mean ± SD, P): 4.91 ± 1.19,*** %

## N4: SEQ ID NO: 1 with deletion of positions 15-18 and positions 1-3 (RFLAKENVTQD)
fibronectin
  Relative protein level (mean ± SD, P), fibronectin: 1.23 ± 0.11,**
[1]
  Activated clotting time (s) (mean ± SD): 73.64 ± 8.12 s
vimentin
  Relative protein level (mean ± SD, P), vimentin: 0.95 ± 0.03, ***
N-cadherin
  Relative protein level (mean ± SD, P), N-cadherin: 0.93 ± 0.04,**
[2]
  Weight of tumor (g) (mean ± SD): 0.62 ± 0.07 g
  Volume of tumor (mm^3) (mean ± SD): 673.03 ± 157.33 mm^3
[3]
  Weight of tumor (g) (mean ± SD): 0.63 ± 0.12 g
  Volume of tumor (mm^3) (mean ± SD): 740.79 ± 140.87 mm^3
[4]
  Migration rate (%) (mean ± SD, P): 14.32 ± 2.67,** %
[5]
  Migration rate (%) (mean ± SD, P): 5.06 ± 2.32,*** %

## N8: SEQ ID NO: 1 with deletion of positions 15-18 and positions 3, 4 and 11 (YRFLAKENTQD)
fibronectin
  Relative protein level (mean ± SD, P), fibronectin: 1.33 ± 0.11,*
[1]
  Activated clotting time (s) (mean ± SD): 74 ± 8.92 s
vimentin
  Relative protein level (mean ± SD, P), vimentin: 0.81 ± 0.03, ****
N-cadherin
  Relative protein level (mean ± SD, P), N-cadherin: 0.7 ± 0.06,***
[2]
  Weight of tumor (g) (mean ± SD): 0.59 ± 0.11 g
  Volume of tumor (mm^3) (mean ± SD): 769.54 ± 160.54 mm^3
[3]
  Weight of tumor (g) (mean ± SD): 0.68 ± 0.11 g
  Volume of tumor (mm^3) (mean ± SD): 783.99 ± 69.19 mm^3
[4]
  Migration rate (%) (mean ± SD, P): 9.54 ± 5.75,** %
[5]
  Migration rate (%) (mean ± SD, P): 4.74 ± 1.84,*** %

## N7: SEQ ID NO: 1 with addition of one amino acid at the carboxyl terminal and substitution A15R (YRVRFLAKENVTQDREDNC)
fibronectin
  Relative protein level (mean ± SD, P), fibronectin: 1.36 ± 0.04,*
[1]
  Activated clotting time (s) (mean ± SD): 73.27 ± 8.43 s
vimentin
  Relative protein level (mean ± SD, P), vimentin: 1 ± 0.03, ***
N-cadherin
  Relative protein level (mean ± SD, P), N-cadherin: 0.73 ± 0.06,***
[2]
  Weight of tumor (g) (mean ± SD): 0.74 ± 0.09 g
  Volume of tumor (mm^3) (mean ± SD): 671.47 ± 150.71 mm^3
[3]
  Weight of tumor (g) (mean ± SD): 0.81 ± 0.16 g
  Volume of tumor (mm^3) (mean ± SD): 741.86 ± 147.66 mm^3
[4]
  Migration rate (%) (mean ± SD, P): 13.12 ± 3.56,** %
[5]
  Migration rate (%) (mean ± SD, P): 8.95 ± 1.27,*** %

## N12: SEQ ID NO: 1 with deletion of position 18 and positions 1-2 (VRFLAKENVTQDAED)
fibronectin
  Relative protein level (mean ± SD, P), fibronectin: 1.23 ± 0.07,**
[1]
  Activated clotting time (s) (mean ± SD): 75.55 ± 7.61 s
vimentin
  Relative protein level (mean ± SD, P), vimentin: 0.71 ± 0.03, ****
N-cadherin
  Relative protein level (mean ± SD, P), N-cadherin: 0.58 ± 0.03,***
[2]
  Weight of tumor (g) (mean ± SD): 0.71 ± 0.09 g
  Volume of tumor (mm^3) (mean ± SD): 863.2 ± 129.61 mm^3
[3]
  Weight of tumor (g) (mean ± SD): 0.73 ± 0.09 g
  Volume of tumor (mm^3) (mean ± SD): 726.15 ± 144.96 mm^3
[4]
  Migration rate (%) (mean ± SD, P): 17.72 ± 2.53,** %
[5]
  Migration rate (%) (mean ± SD, P): 12.46 ± 3.75,*** %

## N10: SEQ ID NO: 1 with deletion of positions 15-18 and 1-3 and PEG modification at the carboxyl terminal (RFLAKENVTQD-{PEG}; reading uncertain)
fibronectin
  Relative protein level (mean ± SD, P), fibronectin: 1.3 ± 0.05,**
[1]
  Activated clotting time (s) (mean ± SD): 73.27 ± 7.36 s
vimentin
  Relative protein level (mean ± SD, P), vimentin: 0.88 ± 0.06, ***
N-cadherin
  Relative protein level (mean ± SD, P), N-cadherin: 0.69 ± 0.03,****
[2]
  Weight of tumor (g) (mean ± SD): 0.57 ± 0.11 g
  Volume of tumor (mm^3) (mean ± SD): 667.99 ± 188.73 mm^3
[3]
  Weight of tumor (g) (mean ± SD): 0.75 ± 0.07 g
  Volume of tumor (mm^3) (mean ± SD): 705.83 ± 182.18 mm^3
[4]
  Migration rate (%) (mean ± SD, P): 15.93 ± 4.73,* %
[5]
  Migration rate (%) (mean ± SD, P): 6.71 ± 2.07,*** %
